Results taken from ChEMBL document CHEMBL1671673, “In vitro activity of colistin (polymyxin E) against 3,480 isolates of gram-negative bacilli obtained from patients in Canadian hospitals in the CANWARD study, 2007-2008” (Antimicrob Agents Chemother, 2009).

Legend:
Assay type in all cases: functional, organism-based
Pseudomonas aeruginosa [1] = experiment: Antibacterial activity against Levofloxacin-resistant Pseudomonas aeruginosa assessed as susceptible isolates at minimum inhibitory concentration of 0.5 ug/ml by CLSI broth microdilution method; parameters: scale not given: the % may be the effect or the level left
Pseudomonas aeruginosa [2] = experiment: Antibacterial activity against Meropenem-resistant Pseudomonas aeruginosa assessed as susceptible isolates at minimum inhibitory concentration of 0.5 ug/ml by CLSI broth microdilution method; parameters: scale not given: the % may be the effect or the level left
Pseudomonas aeruginosa [3] = experiment: Antibacterial activity against Piperacillin-resistant Pseudomonas aeruginosa assessed as susceptible isolates at minimum inhibitory concentration of 1 ug/ml by CLSI broth microdilution method; parameters: scale not given: the % may be the effect or the level left
Pseudomonas aeruginosa [4] = experiment: Antibacterial activity against Piperacillin-resistant Pseudomonas aeruginosa assessed as susceptible isolates at minimum inhibitory concentration of 2 ug/ml by CLSI broth microdilution method; parameters: scale not given: the % may be the effect or the level left
Pseudomonas aeruginosa [5] = experiment: Antibacterial activity against MDR3 Pseudomonas aeruginosa assessed as susceptible isolates at minimum inhibitory concentration of 2 ug/ml by CLSI broth microdilution method; parameters: scale not given: the % may be the effect or the level left
Pseudomonas aeruginosa [6] = experiment: Antibacterial activity against MDR4 Pseudomonas aeruginosa assessed as susceptible isolates at minimum inhibitory concentration of 2 ug/ml by CLSI broth microdilution method; parameters: scale not given: the % may be the effect or the level left
Pseudomonas aeruginosa [7] = experiment: Antibacterial activity against Pseudomonas aeruginosa assessed as resistant isolates at >=8 ug/ml by CLSI broth microdilution method
Serratia marcescens = experiment: Antibacterial activity against Serratia marcescens assessed as susceptible isolates at minimum inhibitory concentration of 0.25 ug/ml by CLSI broth microdilution method; parameters: scale not given: the % may be the effect or the level left
Proteus mirabilis [8] = experiment: Antibacterial activity against Proteus mirabilis assessed as susceptible isolates at minimum inhibitory concentration of 16 ug/ml by CLSI broth microdilution method; parameters: scale not given: the % may be the effect or the level left
Proteus mirabilis [9] = experiment: Antibacterial activity against Proteus mirabilis assessed as susceptible isolates at minimum inhibitory concentration of 2 ug/ml by CLSI broth microdilution method; parameters: scale not given: the % may be the effect or the level left
Enterobacter cloacae [10] = experiment: Antibacterial activity against Enterobacter cloacae assessed as susceptible isolates at minimum inhibitory concentration of 4 ug/ml by CLSI broth microdilution method; parameters: scale not given: the % may be the effect or the level left
Enterobacter cloacae [11] = experiment: Antibacterial activity against Enterobacter cloacae assessed as susceptible isolates at minimum inhibitory concentration of 1 ug/ml by CLSI broth microdilution method; parameters: scale not given: the % may be the effect or the level left
Enterobacter cloacae [12] = experiment: Antibacterial activity against Enterobacter cloacae assessed as susceptible isolates at minimum inhibitory concentration of <=0.06 ug/ml by CLSI broth microdilution method; parameters: scale not given: the % may be the effect or the level left
Klebsiella pneumoniae [13] = experiment: Antibacterial activity against ESBL-producing Klebsiella pneumoniae assessed as susceptible isolates at minimum inhibitory concentration of 8 ug/ml by CLSI broth microdilution method; parameters: scale not given: the % may be the effect or the level left
Klebsiella pneumoniae [14] = experiment: Antibacterial activity against ESBL-producing Klebsiella pneumoniae assessed as susceptible isolates at minimum inhibitory concentration of <=0.06 ug/ml by CLSI broth microdilution method; parameters: scale not given: the % may be the effect or the level left
Pseudomonas aeruginosa [15] = experiment: Antibacterial activity against Pseudomonas aeruginosa assessed as susceptible isolates at minimum inhibitory concentration of 0.5 ug/ml by CLSI broth microdilution method; parameters: scale not given: the % may be the effect or the level left
Pseudomonas aeruginosa [16] = experiment: Antibacterial activity against Pseudomonas aeruginosa assessed as susceptible isolates at minimum inhibitory concentration of 0.25 ug/ml by CLSI broth microdilution method; parameters: scale not given: the % may be the effect or the level left
Escherichia coli [17] = experiment: Antibacterial activity against ESBL-producing Escherichia coli assessed as susceptible isolates at minimum inhibitory concentration of 4 ug/ml by CLSI broth microdilution method; parameters: scale not given: the % may be the effect or the level left
Escherichia coli [18] = experiment: Antibacterial activity against ESBL-producing Escherichia coli assessed as susceptible isolates at minimum inhibitory concentration of 0.5 ug/ml by CLSI broth microdilution method; parameters: scale not given: the % may be the effect or the level left
Escherichia coli [19] = experiment: Antibacterial activity against ESBL-producing Escherichia coli assessed as susceptible isolates at minimum inhibitory concentration of 0.25 ug/ml by CLSI broth microdilution method; parameters: scale not given: the % may be the effect or the level left
Klebsiella oxytoca [20] = experiment: Antibacterial activity against Klebsiella oxytoca assessed as susceptible isolates at minimum inhibitory concentration of 16 ug/ml by CLSI broth microdilution method; parameters: scale not given: the % may be the effect or the level left
[21] = system: Stenotrophomonas maltophilia; experiment: Antibacterial activity against Stenotrophomonas maltophilia assessed as susceptible isolates at minimum inhibitory concentration of 0.25 ug/ml by CLSI broth microdilution method; parameters: scale not given: the % may be the effect or the level left
Klebsiella aerogenes = experiment: Antibacterial activity against Enterobacter aerogenes assessed as susceptible isolates at minimum inhibitory concentration of <=0.06 ug/ml by CLSI broth microdilution method; parameters: scale not given: the % may be the effect or the level left
Acinetobacter baumannii = experiment: Antibacterial activity against Acinetobacter baumannii assessed as susceptible isolates at minimum inhibitory concentration of 4 ug/ml by CLSI broth microdilution method; parameters: scale not given: the % may be the effect or the level left
Pseudomonas aeruginosa [22] = experiment: Antibacterial activity against Amikacin-resistant Pseudomonas aeruginosa assessed as susceptible isolates at minimum inhibitory concentration of 4 ug/ml by CLSI broth microdilution method; parameters: scale not given: the % may be the effect or the level left
Pseudomonas aeruginosa [23] = experiment: Antibacterial activity against Amikacin-resistant Pseudomonas aeruginosa assessed as susceptible isolates at minimum inhibitory concentration of >16 ug/ml by CLSI broth microdilution method; parameters: scale not given: the % may be the effect or the level left
Pseudomonas aeruginosa [24] = experiment: Antibacterial activity against Cefepime-resistant Pseudomonas aeruginosa assessed as susceptible isolates at minimum inhibitory concentration of 0.5 ug/ml by CLSI broth microdilution method; parameters: scale not given: the % may be the effect or the level left
Pseudomonas aeruginosa [25] = experiment: Antibacterial activity against Cefepime-resistant Pseudomonas aeruginosa assessed as susceptible isolates at minimum inhibitory concentration of 2 ug/ml by CLSI broth microdilution method; parameters: scale not given: the % may be the effect or the level left
Pseudomonas aeruginosa [26] = experiment: Antibacterial activity against Ciprofloxacin-resistant Pseudomonas aeruginosa assessed as susceptible isolates at minimum inhibitory concentration of 0.5 ug/ml by CLSI broth microdilution method; parameters: scale not given: the % may be the effect or the level left
Pseudomonas aeruginosa [27] = experiment: Antibacterial activity against Ciprofloxacin-resistant Pseudomonas aeruginosa assessed as susceptible isolates at minimum inhibitory concentration of 2 ug/ml by CLSI broth microdilution method; parameters: scale not given: the % may be the effect or the level left
Pseudomonas aeruginosa [28] = experiment: Antibacterial activity against Ciprofloxacin-resistant Pseudomonas aeruginosa assessed as susceptible isolates at minimum inhibitory concentration of 16 ug/ml by CLSI broth microdilution method; parameters: scale not given: the % may be the effect or the level left
Pseudomonas aeruginosa [29] = experiment: Antibacterial activity against Ciprofloxacin-resistant Pseudomonas aeruginosa assessed as susceptible isolates at minimum inhibitory concentration of >16 ug/ml by CLSI broth microdilution method; parameters: scale not given: the % may be the effect or the level left
Klebsiella oxytoca [30] = experiment: Antibacterial activity against Klebsiella oxytoca assessed as susceptible isolates at minimum inhibitory concentration of 8 ug/ml by CLSI broth microdilution method; parameters: scale not given: the % may be the effect or the level left

In the case of COLISTIN, the Activity (Pseudomonas aeruginosa [1]) is reported as 1.8%, the Activity (Pseudomonas aeruginosa [2]) is reported as 3.5% and the Activity (Pseudomonas aeruginosa [3]) is reported as 37.5%. It also gave an Activity (Pseudomonas aeruginosa [4]) of 92.9%, an Activity (Pseudomonas aeruginosa [5]) of 100% and an Activity (Pseudomonas aeruginosa [6]) of 100%. For the same sequence, the Activity (Pseudomonas aeruginosa [7]) was 1.1%, the Activity (Serratia marcescens) was 0% and the Activity (Proteus mirabilis [8]) was 0.8%. For the same sequence, the Activity (Proteus mirabilis [9]) was 0%, the Activity (Enterobacter cloacae [10]) was 84.9% and the Activity (Enterobacter cloacae [11]) was 82.3%. For the same sequence, the Activity (Enterobacter cloacae [12]) was 0%, the Activity (Klebsiella pneumoniae [13]) was 97.9% and the Activity (Klebsiella pneumoniae [14]) was 0%. The Activity (Pseudomonas aeruginosa [15]) was 2.5%, the Activity (Pseudomonas aeruginosa [16]) was 0% and the Activity (Escherichia coli [17]) was 99.5%. For the same sequence, the Activity (Escherichia coli [18]) was 82.4%, the Activity (Escherichia coli [19]) was 26.1% and the Activity (Klebsiella oxytoca [20]) was 98.1%. For the same sequence, the Activity [21] was 1.2%, the Activity (Klebsiella aerogenes) was 0% and the Activity (Acinetobacter baumannii) was 93.5%. The Activity (Pseudomonas aeruginosa [22]) was 97.4%, the Activity (Pseudomonas aeruginosa [23]) was 100% and the Activity (Pseudomonas aeruginosa [24]) was 6.8%. For the same sequence, the Activity (Pseudomonas aeruginosa [25]) was 97.3%, the Activity (Pseudomonas aeruginosa [26]) was 4.1% and the Activity (Pseudomonas aeruginosa [27]) was 92.5%. It also gave an Activity (Pseudomonas aeruginosa [28]) of 98.6%, an Activity (Pseudomonas aeruginosa [29]) of 100% and an Activity (Klebsiella oxytoca [30]) of 98.1%.
